Some test systems named below: CAKI-1 renal; HCT-116 colon; HOP-62 NSCLC; IGROV1 ovarian; KM12 colon; MALME-3M melanoma; MOLT-4 leukemia; OVCAR-8 ovarian; RXF 393 renal; UACC-257 melanoma.
Common to all, as to experiment: growth of human tumour cells (NCI), 48 h

Each structure is given as a SMILES string.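 The compound was tested at five concentrations on cells cultured in 96-well plates, with a 48-hour exposure period. Here, GI50 denotes the concentration required for 50% inhibition of growth. The concentration for full growth arrest is given as TGI.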

For eight compounds, GI50 and TGI results are on record in PubChem BioAssay (NCI).

In the case of `Nc1ccccc1C#C/C=C\C#Cc1ccccc1F`, the GI50 with CAKI-1 renal was 2.89 µM; in the test on HCT-116 colon it was 3.52 µM; with HOP-62 NSCLC, 6.66 µM; in the test with IGROV1 ovarian it was 5.34 µM; with KM12 colon, 2.1 µM; in the test on MALME-3M melanoma, 2.62 µM. For the same compound, the GI50 in the test with MOLT-4 leukemia is 2.13 µM; in the test on OVCAR-8 ovarian, 18.5 µM; in the test with RXF 393 renal it was 17.8 µM; with UACC-257 melanoma, 15.7 µM. Moreover, the TGI with CAKI-1 renal worked out at 9.36 µM; in the test with HCT-116 colon it was 16.1 µM; with HOP-62 NSCLC it was 20.8 µM; with IGROV1 ovarian it was 28.8 µM; in the test on KM12 colon, 11 µM; with MALME-3M melanoma, 13.9 µM. In addition, the TGI with MOLT-4 leukemia is above 100 µM; in the test on OVCAR-8 ovarian, 67.7 µM; in the test with RXF 393 renal, 57.5 µM; with UACC-257 melanoma, 47.5 µM.

With `CN(C)N=Nc1nn(C(=O)Nc2ccc(Cc3ccccc3)cc2)c2ccccc12`, the GI50 with CAKI-1 renal was 1.12 µM; with HCT-116 colon, above 100 µM; in the test on HOP-62 NSCLC, above 100 µM; in the test with IGROV1 ovarian, 43.5 µM; in the test with KM12 colon, 0.312 µM; in the test on MALME-3M melanoma it was 6.6 µM. The GI50 with MOLT-4 leukemia was 7.47 µM; with OVCAR-8 ovarian, 4.1 µM; in the test on RXF 393 renal, above 28.9 µM; with UACC-257 melanoma, 0.862 µM. The TGI in the test with CAKI-1 renal, in the test on HCT-116 colon, with HOP-62 NSCLC, in the test on IGROV1 ovarian, in the test on KM12 colon and in the test on MALME-3M melanoma was above 100 µM throughout. Moreover, the TGI with MOLT-4 leukemia, with OVCAR-8 ovarian, with RXF 393 renal and in the test on UACC-257 melanoma was above 100 µM each time.

Consider `Cc1cc(Cl)ccc1NC(=O)C(=O)Cc1occc(=O)c1O`, for which the TGI in the test with CAKI-1 renal, with HCT-116 colon, in the test with HOP-62 NSCLC, with IGROV1 ovarian, in the test on KM12 colon and with MALME-3M melanoma was above 100 µM throughout. Further, the TGI in the test on MOLT-4 leukemia, with OVCAR-8 ovarian, with RXF 393 renal and with UACC-257 melanoma was above 100 µM throughout.

On to `COc1cc2c(cc1OCCCCCn1c3ccccc3c3ccccc31)N=C[C@@H]1CCCN1C2=O`, for which the GI50 with CAKI-1 renal is 1.93 µM; in the test on HCT-116 colon, 1.65 µM; with HOP-62 NSCLC, 1.8 µM; in the test on IGROV1 ovarian, 2.08 µM; in the test with KM12 colon it was 1.96 µM; with MALME-3M melanoma it was 2.2 µM. Besides, the GI50 is 2.15 µM with MOLT-4 leukemia, 2.56 µM with OVCAR-8 ovarian, 4.34 µM with RXF 393 renal and 2.29 µM in the test on UACC-257 melanoma. Besides, the TGI with CAKI-1 renal turned out to be 4.58 µM; in the test with HCT-116 colon, 3.33 µM; in the test with HOP-62 NSCLC, 3.91 µM; with IGROV1 ovarian, 4.69 µM; in the test with KM12 colon it was 3.74 µM; in the test with MALME-3M melanoma, 4.72 µM. The TGI amounted to 6.11 µM with MOLT-4 leukemia, 7.17 µM with OVCAR-8 ovarian, 16.4 µM with RXF 393 renal and 5.85 µM with UACC-257 melanoma.

In the case of `Nc1cc(-c2ccccc2)n(C(=O)Nc2ccc(Oc3ccccc3)cc2)n1`, the GI50 in the test on CAKI-1 renal is 28.9 µM; in the test on HCT-116 colon, 53.5 µM; in the test on HOP-62 NSCLC it was 30.2 µM; with IGROV1 ovarian, 36 µM; in the test on KM12 colon, above 100 µM; in the test with MALME-3M melanoma, above 100 µM. For the same compound, the GI50 in the test with MOLT-4 leukemia is 50.5 µM; in the test with OVCAR-8 ovarian, 20.1 µM; in the test with RXF 393 renal, 23 µM; in the test with UACC-257 melanoma, 84.5 µM. The TGI is 77.2 µM in the test with CAKI-1 renal; above 100 µM with HCT-116 colon; above 100 µM in the test with HOP-62 NSCLC; above 100 µM with IGROV1 ovarian; above 100 µM in the test on KM12 colon; above 100 µM in the test on MALME-3M melanoma. Besides, the TGI with MOLT-4 leukemia is above 100 µM; with OVCAR-8 ovarian, 57.1 µM; in the test on RXF 393 renal, 68.3 µM; in the test with UACC-257 melanoma, above 100 µM.

`COc1ccc(OC)c(/C=N/N=C2\C(=O)Nc3c(Cl)cc(Cl)cc32)c1`: the TGI in the test on CAKI-1 renal was above 100 µM; in the test on HCT-116 colon, above 100 µM; with HOP-62 NSCLC it was 79.4 µM; with IGROV1 ovarian, above 100 µM; with KM12 colon, above 100 µM; in the test on MALME-3M melanoma, above 100 µM. Moreover, the TGI with MOLT-4 leukemia, with OVCAR-8 ovarian, in the test with RXF 393 renal and in the test with UACC-257 melanoma was above 100 µM throughout.

As to `CC1=NN(C(=O)c2nn(-c3ccc(Cl)cc3)cc2O)C(=O)C1`, the GI50 with CAKI-1 renal was 1.89 µM; with HCT-116 colon, 0.743 µM; in the test with HOP-62 NSCLC it was 1.13 µM; in the test with IGROV1 ovarian it was 0.505 µM; in the test with KM12 colon, 4.52 µM; in the test with MALME-3M melanoma, 9.29 µM. Besides, the GI50 was 1.24 µM in the test on MOLT-4 leukemia, 1.49 µM with OVCAR-8 ovarian, 2.18 µM with RXF 393 renal and 6.27 µM in the test on UACC-257 melanoma. The TGI in the test with CAKI-1 renal was 26.4 µM; in the test on HCT-116 colon, above 100 µM; with HOP-62 NSCLC it was above 77.6 µM; in the test with IGROV1 ovarian it was 41 µM; in the test with KM12 colon, above 100 µM; in the test with MALME-3M melanoma it was 99.5 µM. Besides, the TGI was above 100 µM in the test on MOLT-4 leukemia, above 100 µM with OVCAR-8 ovarian, above 76.6 µM in the test on RXF 393 renal and 28.9 µM with UACC-257 melanoma.

`Cc1ccc(-c2c3c(N)c4c(nc3nc3c2c(C)nn3-c2ccccc2)CCC4)cc1`: the GI50 in the test on CAKI-1 renal is 6.89 µM; with HCT-116 colon it was 1.57 µM; with HOP-62 NSCLC, 2.7 µM; in the test with IGROV1 ovarian it was 4.02 µM; in the test on KM12 colon it was 4.4 µM; in the test on MALME-3M melanoma it was 18.4 µM. The GI50 is 2.81 µM in the test on MOLT-4 leukemia, 2.32 µM with OVCAR-8 ovarian, 1.58 µM in the test on RXF 393 renal and 14.1 µM with UACC-257 melanoma. Further, the TGI in the test on CAKI-1 renal turned out to be 16.6 µM; in the test on HCT-116 colon, 3.41 µM; in the test with HOP-62 NSCLC it was 8.23 µM; in the test on IGROV1 ovarian it was 16.2 µM; in the test with KM12 colon, 16 µM; with MALME-3M melanoma it was 39.1 µM. The TGI in the test on MOLT-4 leukemia was found to be 7.94 µM; in the test with OVCAR-8 ovarian it was 5.89 µM; with RXF 393 renal it was 3.25 µM; with UACC-257 melanoma, 28.8 µM.
